Measurements from patent US20060122148A1, “High affinity receptors for helicobacter pylori and use thereof” (priority 2002, published 2006).

Columns and labels:
[1] = system: H. pylori strain CCUG 17874; experiment: Chromatogram binding assay of 35S-labeled H. pylori to gangliosides on thin-layer plates; design: species or system Helicobacter pylori; settings: for Amount at which binding was saturated: dilutions of gangliosides on thin-layer plates; for Binding to ganglioside (in words): strain CCUG 17874, thin-layer plates, non-binding = no binding at 4 μg
[2] = system: H. pylori strain CCGU 17874; experiment: Overlay of TLC plates with radiolabeled bacteria (S-3-PG derivatives, glycolipids, neoglycolipids); assay type: binding, Helicobacter pylori; settings: for Binding of H. pylori on TLC plates (in words): overlay with radiolabeled bacteria
H. pylori strain J99 = experiment: Chromatogram binding assay of 35S-labeled H. pylori to gangliosides on thin-layer plates; design: species or system Helicobacter pylori
H. pylori strain 032 = experiment: Overlay of TLC plates with radiolabeled bacteria (PGCs); assay type: binding, Helicobacter pylori; settings: 032 strain from broth

Substance: NeuAcα3Galβ4(Fucα3)GlcNAcβ3Galβ4(Fucα3)GlcNAcβ3Galβ4Glcβ1Cer [No. 13]
- Amount at which binding was saturated [1]: approximately 100 pmole
- Binding to ganglioside (in words) [1]: recognized

Substance: NeuAcα3Galβ4GlcNAcβ3Galβ4Glc-HDA (or -branched lipid)
- Binding of H. pylori on TLC plates (in words) [2]: active

Substance: NeuAcα3Galβ4GlcNAcβ3Galβ4GlcNAcβ3Galβ4Glcβ1Cer [No. 8]
- Binding of H. pylori on TLC plates (in words) [2]: stronger than binding to sialoneotetraosylceramide
- Binding to ganglioside (in words) (H. pylori strain J99): recognized
- Amount at which binding was saturated [1]: approximately 100 pmole
- Relative binding affinity ([1]; strain CCUG 17874, serial dilutions 1-100 pmole on thin-layer plates, densitometry): comparable to the binding of cholera toxin B-subunits to the GM1 ganglioside
- Binding to ganglioside (in words) [1]: recognized

Substance: NeuAcα3Galβ4GlcNAcβ3Galβ4GlcNAcβ3Galβ4GlcNAcβ3Galβ4Glcβ1Cer [No. 10]
- Binding to ganglioside (in words) [1]: recognized

Substance: NeuAcα3Galβ4GlcNAcβ3Galβ4Glcβ1Cer [No. 2]
- Sensitivity of detection ([2]; some H. pylori batches): 0.3-0.4 pmol/mm^2
- Binding of H. pylori on TLC plates (in words) (H. pylori strain 032): do not bind

Substance: NeuAcα3Galβ4Glcβ1Cer [No. 1]
- Binding to ganglioside (in words) [1]: inactive

Substance: NeuAcα3Galβ3(Fucα4)GlcNAcβ3Galβ4Glcβ1Cer [No. 6]
- Binding to ganglioside (in words) (H. pylori strain J99): occasional binding
- Binding to ganglioside (in words) [1]: did not recognize

Substance: NeuAcα3Galβ4GlcNAcβ3Galβ4(Fucα3)GlcNAcβ3Galβ4Glcβ1Cer [No. 12]
- Binding to ganglioside (in words) [1]: recognized

Substance: Galα3(Fucα2)Galβ4GlcNAcβ6(NeuAcα3Galβ4GlcNAcβ3)Galβ4GlcNAcβ3Galβ4Glcβ1Cer [No. 19]
- Binding to ganglioside (in words) (H. pylori strain J99): recognized
- Binding to ganglioside (in words) [1]: recognized
- Detection level ([1]; thin-layer plates): approximately 100 pmole

Substance: NeuAcα3Galβ4GlcNAcβ6(NeuAcα3Galβ4GlcNAcβ3)Galβ4GlcNAcβ3Galβ4Glcβ1Cer [No. 16]
- Binding to ganglioside (in words) (H. pylori strain J99): recognized
- Binding to ganglioside (in words) [1]: recognized
